From patent publication US10865211B2 (ENANTA PHARMACEUTICALS, INC, priority 2018, dated 2020)

Key:
[1] = Compound induced cellular toxicity in HepG2 cells (ATPlite); format: cell-based; conditions: human, three days, ATPlite 1 Step, concentration reducing total ATP levels by 50% relative to no drug controls
Procedure: At day 3, post seeding cells are treated with ATPlite 1 Step according to the manufacturer's instructions.

2.2.15 cells = assay: Antiviral activity in 2.2.15 cells: reduction of viral product accumulation (qPCR, HBsAg/HBeAg ELISA); format: cell-based, HBV; conditions: Hepatitis B virus, 120 h, day 5 post treatment, concentration reducing viral product accumulation in cell lysates or supernatants by 50% relative to no drug controls
Procedure: 2.2.15 cells are passaged upon attaining confluency in DMEM/F12 media in the presence of 10% FBS, Penn/Strep, and 250 ug/mL G418. Novel compounds are 5 fold serially diluted in DMSO and added to 96 well plates containing 35,000 cells/well at a 1:200 dilution so that the final concentration of DMSO is 0.5%. On day 5, post treatment cell lysates and supernatants are harvested for analysis.
Cells are lysed using Agilent Sidestep Lysis buffer, diluted 1:100 and quantified via quantitative real time PCR. Commercially available ELISA kits are used to quantitate the viral proteins HBsAg (Alpco) or HBeAg (US Biological) by following the manufacturer's recommended protocol after diluting samples to match the linear range of their respective assays. Irrespective of readout, compound concentrations that reduce viral product accumulation in the cell lysates or supernatants by 50% relative to no drug controls (EC50) are reported; EC50 ranges are as follows: A<0.1 μM; B 0.1-1 μM; C>1 μM.

Row | SMILES | CC50 at 3 days [1] | EC50 (2.2.15 cells)
1 | CCC1Cc2c(oc3ccccc23)-c2cc(=O)c(C(=O)O)cn21 (stereo not drawn) [Example 1, 6-ethyl-2-oxo-6,7-dihydro-2H-benzofuro[2,3-a]quinolizine-3-carboxylic acid] | > 25000 nM | 100 to 1000 nM
2 | O=C(O)c1cn2c(cc1=O)-c1oc3ccccc3c1CC2c1ccccc1 (stereo not drawn) [Example 2, 2-oxo-6-phenyl-6,7-dihydro-2H-benzofuro[2,3-a]quinolizine-3-carboxylic acid] | > 25000 nM | > 1000 nM
3 | CC(C)(C)[C@@H]1Cc2c(oc3ccccc23)-c2cc(=O)c(C(=O)O)cn21 [Example 3, (S)-6-(tert-butyl)-2-oxo-6,7-dihydro-2H-benzofuro[2,3-a]quinolizine-3-carboxylic acid] | > 25000 nM | < 100 nM
4 | CC(C)(C)[C@@H]1Cc2c(oc3c(OC(F)F)cccc23)-c2cc(=O)c(C(=O)O)cn21 [Example 4, (S)-6-(tert-butyl)-11-(difluoromethoxy)-2-oxo-6,7-dihydro-2H-benzofuro[2,3-a]quinolizine-3-carboxylic acid] | > 25000 nM | < 100 nM
5 | CC(C)(C)[C@@H]1Cc2c(oc3cc(-c4ccoc4)ccc23)-c2cc(=O)c(C(=O)O)cn21 [Example 5, (S)-6-(tert-butyl)-10-(furan-3-yl)-2-oxo-6,7-dihydro-2H-benzofuro[2,3-a]quinolizine-3-carboxylic acid] |  | < 100 nM
6 | CC(C)(C)[C@@H]1Cc2c(oc3cc(OC(F)F)ccc23)-c2cc(=O)c(C(=O)O)cn21 [Example 6, (S)-6-(tert-butyl)-10-(difluoromethoxy)-2-oxo-6,7-dihydro-2H-benzofuro[2,3-a]quinolizine-3-carboxylic acid] | 10000 to 25000 nM | < 100 nM
7 | CC(C)(C)[C@@H]1Cc2c(oc3cc(OC(F)F)ccc23)-c2cc(=O)c(-c3ncn[nH]3)cn21 [Example 7, (S)-6-(tert-butyl)-10-(difluoromethoxy)-3-(1H-1,2,4-triazol-5-yl)-6,7-dihydro-2H-benzofuro[2,3-a]quinolizin-2-one] | > 25000 nM | < 100 nM
8 | CC(C)(C)[C@@H]1Cc2c(oc3c(OC(F)F)cccc23)-c2cc(=O)c(-c3ncn[nH]3)cn21 [Example 8, (S)-6-(tert-butyl)-11-(difluoromethoxy)-3-(1H-1,2,4-triazol-5-yl)-6,7-dihydro-2H-benzofuro[2,3-a]quinolizin-2-one] | > 25000 nM | < 100 nM
9 | Cn1ccc(-c2ccc3c4c(oc3c2)-c2cc(=O)c(C(=O)O)cn2[C@H](C(C)(C)C)C4)n1 [Example 9, (S)-6-(tert-butyl)-10-(1-methyl-1H-pyrazol-3-yl)-2-oxo-6,7-dihydro-2H-benzofuro[2,3-a]quinolizine-3-carboxylic acid] |  | < 100 nM
10 | Cn1cc(-c2ccc3c4c(oc3c2)-c2cc(=O)c(C(=O)O)cn2[C@H](C(C)(C)C)C4)cn1 [Example 10, (S)-6-(tert-butyl)-10-(1-methyl-1H-pyrazol-4-yl)-2-oxo-6,7-dihydro-2H-benzofuro[2,3-a]quinolizine-3-carboxylic acid] | > 25000 nM | < 100 nM
11 | Cn1nccc1-c1ccc2c3c(oc2c1)-c1cc(=O)c(C(=O)O)cn1[C@H](C(C)(C)C)C3 [Example 11, (S)-6-(tert-butyl)-10-(1-methyl-1H-pyrazol-5-yl)-2-oxo-6,7-dihydro-2H-benzofuro[2,3-a]quinolizine-3-carboxylic acid] | > 25000 nM | < 100 nM
12 | CC(C)(C)[C@@H]1Cc2c(oc3cc(C#N)ccc23)-c2cc(=O)c(C(=O)O)cn21 [Example 12, (S)-6-(tert-butyl)-10-cyano-2-oxo-6,7-dihydro-2H-benzofuro[2,3-a]quinolizine-3-carboxylic acid] | > 25000 nM | < 100 nM
13 | CC(C)(C)[C@@H]1Cc2c(oc3cc(-c4cn[nH]c4)ccc23)-c2cc(=O)c(C(=O)O)cn21 [Example 13, (S)-6-(tert-butyl)-2-oxo-10-(1H-pyrazol-4-yl)-6,7-dihydro-2H-benzofuro[2,3-a]quinolizine-3-carboxylic acid] | > 25000 nM | < 100 nM
14 | CC(C)(C)[C@@H]1Cc2c(oc3cc(-c4ccn[nH]4)ccc23)-c2cc(=O)c(C(=O)O)cn21 [Example 14, (S)-6-(tert-butyl)-2-oxo-10-(1H-pyrazol-5-yl)-6,7-dihydro-2H-benzofuro[2,3-a]quinolizine-3-carboxylic acid] | > 25000 nM | < 100 nM
15 | CC(C)(C)[C@@H]1Cc2c(oc3cc(-c4ccco4)ccc23)-c2cc(=O)c(C(=O)O)cn21 [Example 15, (S)-6-(tert-butyl)-10-(furan-2-yl)-2-oxo-6,7-dihydro-2H-benzofuro[2,3-a]quinolizine-3-carboxylic acid] |  | < 100 nM
16 | CC(C)(C)[C@@H]1Cc2c(oc3cc(-c4cnco4)ccc23)-c2cc(=O)c(C(=O)O)cn21 [Example 17, (S)-6-(tert-butyl)-10-(oxazol-5-yl)-2-oxo-6,7-dihydro-2H-benzofuro[2,3-a]quinolizine-3-carboxylic acid] | > 25000 nM | < 100 nM
17 | CC(C)(C)[C@@H]1Cc2c(oc3cc(-c4cccs4)ccc23)-c2cc(=O)c(C(=O)O)cn21 [Example 18, (S)-6-(tert-butyl)-2-oxo-10-(thiophen-2-yl)-6,7-dihydro-2H-benzofuro[2,3-a]quinolizine-3-carboxylic acid] |  | < 100 nM
18 | CC(C)(C)[C@@H]1Cc2c(oc3cc(-c4cnsc4)ccc23)-c2cc(=O)c(C(=O)O)cn21 [Example 19, (S)-6-(tert-butyl)-10-(isothiazol-4-yl)-2-oxo-6,7-dihydro-2H-benzofuro[2,3-a]quinolizine-3-carboxylic acid] |  | < 100 nM
19 | CC(C)(C)[C@@H]1Cc2c(oc3cc(-c4ccsc4)ccc23)-c2cc(=O)c(C(=O)O)cn21 [Example 20, (S)-6-(tert-butyl)-2-oxo-10-(thiophen-3-yl)-6,7-dihydro-2H-benzofuro[2,3-a]quinolizine-3-carboxylic acid] |  | < 100 nM
20 | CC(C)(C)[C@@H]1Cc2c(oc3cc(-c4nccs4)ccc23)-c2cc(=O)c(C(=O)O)cn21 [Example 21, (S)-6-(tert-butyl)-2-oxo-10-(thiazol-2-yl)-6,7-dihydro-2H-benzofuro[2,3-a]quinolizine-3-carboxylic acid] | 10000 to 25000 nM | < 100 nM
21 | CC(C)(C)[C@@H]1Cc2c(oc3cc(-c4cscn4)ccc23)-c2cc(=O)c(C(=O)O)cn21 [Example 22, (S)-6-(tert-butyl)-2-oxo-10-(thiazol-4-yl)-6,7-dihydro-2H-benzofuro[2,3-a]quinolizine-3-carboxylic acid] |  | < 100 nM
22 | CC(C)(C)[C@@H]1Cc2c(oc3cc(C4CC4)ccc23)-c2cc(=O)c(C(=O)O)cn21 [Example 23, (S)-6-(tert-butyl)-10-cyclopropyl-2-oxo-6,7-dihydro-2H-benzofuro[2,3-a]quinolizine-3-carboxylic acid] | 10000 to 25000 nM | < 100 nM
23 | Cc1ccc2c3c(oc2c1)-c1cc(=O)c(C(=O)O)cn1[C@H](C(C)(C)C)C3 [Example 24, (S)-6-(tert-butyl)-10-methyl-2-oxo-6,7-dihydro-2H-benzofuro[2,3-a]quinolizine-3-carboxylic acid] | > 25000 nM | < 100 nM
24 | CCc1ccc2c3c(oc2c1)-c1cc(=O)c(C(=O)O)cn1[C@H](C(C)(C)C)C3 [Example 25, (S)-6-(tert-butyl)-10-ethyl-2-oxo-6,7-dihydro-2H-benzofuro[2,3-a]quinolizine-3-carboxylic acid] | > 25000 nM | < 100 nM
25 | CC(C)(C)[C@@H]1Cc2c(oc3c(-c4ccoc4)cccc23)-c2cc(=O)c(C(=O)O)cn21 [Example 26, (S)-6-(tert-butyl)-11-(furan-3-yl)-2-oxo-6,7-dihydro-2H-benzofuro[2,3-a]quinolizine-3-carboxylic acid] | 10000 to 25000 nM | < 100 nM
26 | CC(C)(C)[C@@H]1Cc2c(oc3c(N4CCCC4)cccc23)-c2cc(=O)c(C(=O)O)cn21 [Example 40, (S)-6-(tert-butyl)-2-oxo-11-(pyrrolidin-1-yl)-6,7-dihydro-2H-benzofuro[2,3-a]quinolizine-3-carboxylic acid] |  | < 100 nM
27 | Cc1cccc2c3c(oc12)-c1cc(=O)c(C(=O)O)cn1[C@H](C(C)(C)C)C3 [Example 44, (S)-6-(tert-butyl)-11-methyl-2-oxo-6,7-dihydro-2H-benzofuro[2,3-a]quinolizine-3-carboxylic acid] |  | 100 to 1000 nM
28 | Cn1ccc(-c2cccc3c4c(oc23)-c2c(F)c(=O)c(C(=O)O)cn2[C@H](C(C)(C)C)C4)n1 [Example 56, (S)-6-(tert-butyl)-1-fluoro-11-(1-methyl-1H-pyrazol-3-yl)-2-oxo-6,7-dihydro-2H-benzofuro[2,3-a]quinolizine-3-carboxylic acid] |  | < 100 nM
29 | CC(C)(C)[C@@H]1Cc2c(oc3c(N4CCC(F)(F)C4)cccc23)-c2c(F)c(=O)c(C(=O)O)cn21 [Example 60, (S)-6-(tert-butyl)-11-(3,3-difluoropyrrolidin-1-yl)-1-fluoro-2-oxo-6,7-dihydro-2H-benzofuro[2,3-a]quinolizine-3-carboxylic acid] |  | < 100 nM
30 | CC(C)[C@@H]1Cc2c(oc3cc(-c4cccs4)ccc23)-c2cc(=O)c(C(=O)O)cn21 [Example 75, (S)-6-isopropyl-2-oxo-10-(thiophen-2-yl)-6,7-dihydro-2H-benzofuro[2,3-a]quinolizine-3-carboxylic acid] |  | < 100 nM
